Laboratory results published in patent US6866861B1, “Method and composition for enhancing milk component concentrations” (Land O'Lakes, Inc., priority 1999, dated 2005).

System: cows
Experiment: Oral feeding of sorbitol (not ruminally protected) to cows versus control group (Example 7)
Format: in vivo, cow
Experimental: To determine the weight percent total solids, wet basis, in a sample, the actual weight of total solids is determined by analyzing the sample in accordance with Method #925.23 (33.2.09) of Official Methods of Analysis, Association of Official Analytical Chemists (AOAC) (16th Ed., 1995). The weight percent total solids, wet basis, is then calculated by dividing the actual weight of total solids by the actual weight of the sample. The weight percent of true protein, wet basis, for a particular sample is calculated after first determining the wet basis weight percent of total Kjeldahl nitrogen and the wet basis weight percent of non-protein nitrogen in the sample. The wet basis weight percent of total Kjeldahl nitrogen in the sample is determined using the method referenced above. The wet basis weight percent of non-protein nitrogen (NPN) in the sample is determined in accordance with Method #991.21 (33.2.12) of Official Methods of Analysis, Association of Official Analytical Chemists (AOAC) (16th Ed., 1995). The weight percent of true protein, wet basis, in the sample is then determined by subtracting the wet basis weight percent of non-protein nitrogen in the sample from the wet basis weight percent of total Kjeldahl nitrogen in the sample. To determine the weight percent lactose, wet basis, in a liquid sample, the weight of the liquid sample is first determined. The actual weight of lactose in the liquid sample may then be determined using analysis kit number 176-303, that is available from Boehringer-Mannheim of Indianapolis, Ind. in accordance with the procedural instructions included with analysis kit number 176-303. The weight percent lactose, wet basis, in the liquid sample is then calculated by dividing the actual weight of lactose in the liquid sample by the actual weight of the liquid sample. To determine the weight percent fat, wet basis, in a sample, the actual weight of fat in the sample is determined in accordance with Method #974.09 (33.7.18) of Official Methods of Analysis, Association of Official Analytical Chemists (AOAC) (16th Ed., 1995). The weight percent fat, wet basis, is then calculated by dividing the actual weight of fat in the sample by the actual weight of the sample. In this example, ten cows were orally fed 100 grams per cow per day of sorbitol along with their other daily rations during a test period of four weeks, while ten different cows of a control group were orally fed the same daily rations as the ten cows, with the exception that the ten cows of this control group were not given any sorbitol. The milk of the cows in the control group and the milk of the cows given sorbitol was sampled twice per week during the four week test period. Therefore, the values presented in Table 6 below for the various milk components for the control group and for the cows fed sorbitol represent averages of eight milk samples during the test period. The probability value, P, that is presented in Table 6 for each of the different milk components is a measure of statistical probability that the differing values between the control cattle and the cattle fed sorbitol, for each respective milk component, can be explained by the difference between the control group not being fed sorbitol and the test group that was fed sorbitol. A P value of 0.10 means that 10 times out of 100 the results can be explained by factors other than the feeding or withholding of sorbitol. […]

[1] = milk, oral 100 gr/day, four weeks, 10 cows, average of eight samples

OC[C@@H](O)[C@@H](O)[C@H](O)[C@@H](O)CO [sorbitol]
Fat [1]: 4.02 Wt %
Lactose [1]: 4.81 Wt. %
Total Solids [1]: 12.11 Wt. %
True Protein [1]: 2.76 Wt. %
weight percent of milk components versus control group (conclusion in words) (oral feeding, not ruminally protected): no statistically significant increase
